Experimental data taken from US10093973B2, “Polymerase compositions and methods” (LIFE TECHNOLOGIES CORPORATION, priority 2009, dated 2018).
Numbering of substitutions follows the chain as printed.

How the values were obtained:
Type in all cases: biochemical
[1] = test system: AF647-C6-dG6P in [enzyme.DNA.nucleotide] ternary complex with dideoxy-primer/template duplex; experiment: Stopped-flow measurement of t−1 (nucleotide dissociation from ternary complex); set-up: unit not given here; conditions: t−1 = 1/k−1; ternary complex with 7 μM AF647-C6-dG6P chased with 50 μM non-labeled nucleotide, 2 mM MnCl2
Method: Stopped-Flow Measurements of t−1
The stopped-flow techniques for measuring t−1 ([…]) followed the techniques described by M. Bakhtina (2009 Biochemistry 48:3197-3208).
The rate of the nucleotide dissociation ([…]) from the ternary complex of [enzyme.DNA.nucleotide] was measured in an Applied Photophysics SX20 stopped-flow spectrometer by monitoring changes […] a duplex Alexa fluor 546 dye-labeled-DNA template following the mixing of the [enzyme.DNA.labeled nucleotide] ternary complex with 50 μM cognate non-labeled deoxynucleoside triphosphate in a buffer containing 50 mM Tris-HCl (pH 7.5), 50 mM NaCl, 4 mM DTT, 0.2% BSA, and 2 mM MnCl2.
The ternary complexes were prepared using: 330 nM polymerase, 100 nM template/primer duplex, and 7 μM terminal phosphate-labeled nucleotides (AF647-C6-dG6P).
The averaged stopped-flow fluorescence traces (>1.5 msec) were fitted with a single exponential equation (2) to extrapolate the rate of the nucleotide dissociation (k−1) from the [enzyme.DNA.nucleotide] ternary complex. Fluorescence=A1*e^−k−1*t+C (equation 2) where A1 represents the corresponding fluorescence amplitude, C is an offset constant, and k−1 and the observed rate constants for the fluorescence transition.

primer-template duplex = experiment: Fractional extension activity assay; conditions: versus reference RB69 (SEQ ID NO: 15) and His-tagged Phi-29 (SEQ ID NO: 20); 330 nM enzyme, 1 μM dNTP, room temperature, 10 seconds
Method: The fractional extension activity of an exemplary modified polymerase having the amino acid of SEQ ID NO: 8 (referred to as “B104(exo-)” in FIG. 3) was measured and compared to the fractional extension activities of two different exemplary reference polymerases, including an RB69 reference polymerase comprising the amino acid sequence SEQ ID NO: 15 and a His-tagged Phi-29 reference polymerase comprising the amino acid sequence of SEQ ID NO: 20 (referred to herein as “HP1 polymerase”). All polymerases were prepared according to the method of Example 1. Both modified and reference polymerases were evaluated and compared in an assay to measure the fractional extension activity of each polymerase, i.e., the fraction of nucleic acid templates that are extended by at least one nucleotide in a polymerase reaction. In this assay, the fractional extension activity of a polymerase is defined as the fraction (measured as a percentage fraction) of nucleic acid templates that are extended by at least one nucleotide by the test or reference polymerase under the following reaction conditions: 50 mM Tris, pH 7.0, 50 mM NaCl, 1 mM MnCl2, 1 μM dNTP, 330 nM enzyme, 100 nM primer-template duplex and 0.5% BSA, wherein the extension is performed at room temperature for 10 seconds.
The primer-template duplex was formed by annealing the following polynucleotides: […]

[2] = test system: ωdN4P and non-extendible AF546 primer:template duplex; experiment: Stopped-flow t−1 measurement of Example 7; conditions: modified versus reference polymerase, ωdN4P 14 μM
Method: In this example, the t−1 values of an exemplary modified polymerase comprising the amino acid of SEQ ID NO: 8 and an exemplary reference polymerase comprising the amino acid sequence of SEQ ID NO: 20 were measured and compared. These kinetic parameters were evaluated using an assay system wherein mixtures comprising a test polymerase and a primer:template duplex were mixed in a stopped-flow assay with nucleotides. To measure t−1, the primer used to form the primer:template duplex was a non-extendible primer including a dideoxynucleotide at its 3′ end, and the template was a synthetic DNA template comprising a donor Alexa Fluor 546 moiety at its 5′ end. […] The ternary complex was mixed with unlabeled nucleotides in a stopped-flow experiment, and the resulting fluorescence was monitored as described below. […]
Preincubated mixtures comprising 200 nM of a primer:templex duplex, 660 nM of test polymerase, and 14 μM of ωdN4P were prepared and then mixed with a solution comprising the unlabeled cognate nucleotide (50 μM) in a stopped-flow apparatus. The fluorescence at both 546 nm and 647 nm was monitored following mixing. The averaged stopped-flow fluorescence traces were fitted with a single exponential function having the form of Equation (1) to extrapolate the t−1 value of the test polymerase.

- t−1 [1]: 16
Substance: mB103 (SEQ ID: 8): B103 polymerase triple mutant with D166A, F383L and D384N
- fractional extension activity (primer-template duplex): higher
- estimated t−1 values [2]: comparable
